According to patent US4229466A, “Sesquiterpene derivatives having anti-complementary activity” (Otsuka Pharmaceutical Co., Ltd., priority 1977, dated 1980):
Where “and” joins values, the source holds several entries; their conditions need not be identical. Identical values can stand only once.

Assays:
[1] = test system: complement serum (guinea pig complement); test: Anti-complement activity: 50% inhibition of hemolysis of sensitized erythrocytes; format: cell-based; settings: Cavia porcellus, Erythrocyte, 1 h, 37° C., 60 minutes, guinea pig complement diluted 150 times, OD413, read-out: Anti-Complement Activity Value (50% hemolysis inhibitory activity value)
Method: The anti-complement activity was measured and confirmed by the testing method described in Meneki Kagaku (Immuno-Chemistry), Yuichi Yamamura et al., Ed. pages 830-834, Asakura Shoten, Tokyo, Japan (1973). Specifically,a test tube was charged with 0.5 ml of an aqueous dispersion of each of the test compounds, 0.5 ml of sensitized erythrocytes (EA) containing 1×10^8 cells/ml, 1 ml of a 5-fold diluted solution of a Veronal buffer solution containing gelatin, Ca^++ and Mg^++ (GVB^++), and 0.5 ml of complement serum (guinea pig complement) diluted to 150 times with the GVB^++. The mixture was maintained hot at 37° C. for 60 minutes. Then, 5 ml of an ice-cold physiological saline solution was added thereto, and the mixture was centrifuged. […] The 50% hemolysis inhibitory activity value (γ/ml) measured by the above method is shown in Table 2 below for each test compound.

[2] = Acute toxicity on intravenous administration to mice; settings: mouse, in vivo
[3] = test system: Nephrotoxin-Type Nephritis; test: Therapeutic effect on nephrotoxin-type nephritis (proteinuria); format: in vivo, male Wistar rats; settings: 7 days; for amount of proteinurea, Average: average of 3 replications; for amount of proteinurea: individual replication
Source text: Rat nephrotoxin ("NT" for brevity) was obtained as described below. Rat kidney cortex was homogenized with an equal quantity of physiological saline. The homogenized mixture was mixed with Freund's complete adjuvant (a product of Difco Company) in a volume ratio of 1:1. Two milliliters of the resulting mixture was intramuscularly injected into a rabbit (body weight 3,100 g) to immunize the rabbit. A month and a half later, blood was taken from the heart of the rabbit and serum was obtained. The resulting serum was inactivated at 56° C. for 30 minutes, then salted out with a 40% saturated aqueous solution of ammonium sulfate, and fractionated. The γ-globulin (IgG) fraction was collected to obtain NT.
The evaluation was carried out using male Wistar rats with a body weight of 150 to 160 g with three replications for each test compound. The test compound was intraperitoneally administered once every 24 hours for seven days. One hour after the administration of the test compound on the third day, the NT was applied. The NT was intravenously injected in an amount of 1 ml at a tail vein of each rat. Chlorophyllin (CP) was used as a comparison compound, and physiological saline solution was used as a control.
The proteinuria level (total amount excreted into the urine over a 24 hour period) was measured using turbidometry employing bovine serum albumin as a control by means of sulfosalicylic acid.

Heymann-type Nephritis = test: Therapeutic effects on Heymann-type nephritis (proteinuria); format: in vivo, male Wistar rats; settings: for amount of proteinurea, Average: average of 3 replications; for amount of proteinurea: individual replication
Method: Male Wistar rats with a body weight of 180 to 200 g were used in the test. Rat kidney cortex was extracted, and homogenized with an equal quantity by volume of a physiological saline solution. The homogenate was centrifuged at 1500 G for 1 hour. The supernatant liquid was purified in accordance with the method of T. S. […] The resulting mixture was injected intraperitoneally into isologous rats in an amount of 0.5 ml per rat. […] (This period was about 6 to 8 weeks.) […] CP was used as a comparison compound, and physiological saline solution was used as a control. Three replications were conducted for each test compound.

[4] = Day 1, 5 mg per rat i.p. once daily
[5] = Day 4, 5 mg per rat i.p. once daily
[6] = Day 7, 5 mg per rat i.p. once daily
[7] = Day 10, 5 mg per rat i.p. once daily
[8] = Before Administration, group of 5 mg per rat i.p.
[9] = Day 1, 5 mg per rat i.p. once a day, 7 days
[10] = Day 4, 5 mg per rat i.p. once a day, 7 days
[11] = Day 7, 5 mg per rat i.p. once a day, 7 days
[12] = Day 14, 5 mg per rat i.p. once a day, 7 days
[13] = Day 21, 5 mg per rat i.p. once a day, 7 days
[14] = Day 1, 3 mg per rat i.p. once daily
[15] = Day 4, 3 mg per rat i.p. once daily
[16] = Day 7, 3 mg per rat i.p. once daily
[17] = Day 10, 3 mg per rat i.p. once daily
[18] = Before Administration, group of 3 mg per rat i.p.
[19] = Day 1, 3 mg per rat i.p. once a day, 7 days
[20] = Day 4, 3 mg per rat i.p. once a day, 7 days
[21] = Day 7, 3 mg per rat i.p. once a day, 7 days
[22] = Day 14, 3 mg per rat i.p. once a day, 7 days
[23] = Day 21, 3 mg per rat i.p. once a day, 7 days

SMILES	IC50 [1]	LD50 [2]	amount of proteinurea, Average [3, 4]	amount of proteinurea [3, 4]	amount of proteinurea, Average [3, 5]	amount of proteinurea [3, 5]	amount of proteinurea, Average [3, 6]	amount of proteinurea [3, 6]	amount of proteinurea, Average [3, 7]	amount of proteinurea [3, 7]	amount of proteinurea, Average (Heymann-type Nephritis; [8])	amount of proteinurea (Heymann-type Nephritis; [8])	amount of proteinurea, Average (Heymann-type Nephritis; [9])	amount of proteinurea (Heymann-type Nephritis; [9])	amount of proteinurea, Average (Heymann-type Nephritis; [10])	amount of proteinurea (Heymann-type Nephritis; [10])	amount of proteinurea, Average (Heymann-type Nephritis; [11])	amount of proteinurea (Heymann-type Nephritis; [11])	amount of proteinurea, Average (Heymann-type Nephritis; [12])	amount of proteinurea (Heymann-type Nephritis; [12])	also measured
CC1CCC2C(C)(C)C(O)C(O)CC2(C)C12Cc1c(O)cc(C=C(C#N)C(=O)O)c(C=C(C#N)C(=O)O)c1O2 (stereo not drawn) [(6), 6,7-Dihydroxy-2,5,5,8a-tetramethyl-1,2,3,4,4a,5,6,7,8,8a-decahydronaphthalene-1-spiro-2'-[6',7'-di-(2-cyano-2-carboxyvinyl)-4'-hydroxy-2',3'-dihydrobenzofuran]]	40 µg/mL	250 mg/kg	2.5 mg/day	2.1 mg/day and 1.5 mg/day and 3.7 mg/day	1.8 mg/day	1.9 mg/day and 1.2 mg/day and 2.3 mg/day	1.0 mg/day	0.8 mg/day and 0.9 mg/day and 1.4 mg/day	10 mg/day	13 mg/day and 7 mg/day and 9 mg/day	121 mg/day	98 mg/day and 127 mg/day and 139 mg/day	116 mg/day	113 mg/day and 121 mg/day and 116 mg/day	56 mg/day	48 mg/day and 63 mg/day and 57 mg/day	37 mg/day	36 mg/day and 47 mg/day and 29 mg/day	17 mg/day	18 mg/day and 21 mg/day and 13 mg/day	amount of proteinurea, Average (Heymann-type Nephritis; [13]): 12 mg/day; amount of proteinurea (Heymann-type Nephritis; [13]): 8 mg/day and 15 mg/day and 14 mg/day
CC1CCC2C(C)(C)C(O)C(O)CC2(C)C12Cc1c(O)cc(C=O)c(C=O)c1O2 (stereo not drawn) [(1), 6,7-Dihydroxy-2,5,5,8a-tetramethyl-1,2,3,4,4a,5,6,7,8,8a-decahydronaphthalene-1-spiro-2'-(6',7'-diformyl-4'-hydroxy-2',3'-dihydrobenzofuran)]	10 µg/mL	40 mg/kg	–	–	–	–	–	–	–	–	–	–	–	–	–	–	–	–	–	–	amount of proteinurea, Average [3, 14]: 2.8 mg/day; amount of proteinurea [3, 14]: 2.5 mg/day and 4.3 mg/day and 1.7 mg/day; amount of proteinurea, Average [3, 15]: 1.6 mg/day; amount of proteinurea [3, 15]: 1.5 mg/day and 2.1 mg/day and 1.1 mg/day; amount of proteinurea, Average [3, 16]: 1.2 mg/day; amount of proteinurea [3, 16]: 0.8 mg/day and 1.8 mg/day and 0.9 mg/day; amount of proteinurea, Average [3, 17]: 8 mg/day; amount of proteinurea [3, 17]: 8 mg/day and 10 mg/day and 7 mg/day; amount of proteinurea, Average (Heymann-type Nephritis; [18]): 116 mg/day; amount of proteinurea (Heymann-type Nephritis; [18]): 95 mg/day and 132 mg/day and 121 mg/day; amount of proteinurea, Average (Heymann-type Nephritis; [19]): 111 mg/day; amount of proteinurea (Heymann-type Nephritis; [19]): 90 mg/day and 125 mg/day and 120 mg/day; amount of proteinurea, Average (Heymann-type Nephritis; [20]): 61 mg/day; amount of proteinurea (Heymann-type Nephritis; [20]): 47 mg/day and 65 mg/day and 70 mg/day; amount of proteinurea, Average (Heymann-type Nephritis; [21]): 26 mg/day; amount of proteinurea (Heymann-type Nephritis; [21]): 17 mg/day and 35 mg/day and 27 mg/day; amount of proteinurea, Average (Heymann-type Nephritis; [22]): 11 mg/day; amount of proteinurea (Heymann-type Nephritis; [22]): 9 mg/day and 15 mg/day and 10 mg/day; amount of proteinurea, Average (Heymann-type Nephritis; [23]): 10 mg/day; amount of proteinurea (Heymann-type Nephritis; [23]): 10 mg/day and 12 mg/day and 9 mg/day
CC1CCC2C(C)(C)C(O)C(O)CC2(C)C12Cc1c(O)cc(C=O)c(C(=O)O)c1O2 (stereo not drawn) [(67), Disodium 6,7-dihydroxy-2,5,5,8a-tetramethyl-1,2,3,4,4a,5,6,7,8,8a-decahydronaphthalene-1-spiro-2'-(7'carboxylate-6'-formyl-4'-oxide-2',3'-dihydrobenzofuran)]	60 µg/mL	500 mg/kg	3.0 mg/day	2.7 mg/day and 4.1 mg/day and 2.3 mg/day	1.7 mg/day	1.8 mg/day and 2.0 mg/day and 1.3 mg/day	1.1 mg/day	0.7 mg/day and 1.5 mg/day and 1.2 mg/day	9 mg/day	9 mg/day and 12 mg/day and 7 mg/day	118 mg/day	117 mg/day and 132 mg/day and 105 mg/day	117 mg/day	109 mg/day and 127 mg/day and 114 mg/day	59 mg/day	59 mg/day and 67 mg/day and 51 mg/day	30 mg/day	23 mg/day and 41 mg/day and 25 mg/day	14 mg/day	13 mg/day and 17 mg/day and 11 mg/day	amount of proteinurea, Average (Heymann-type Nephritis; [13]): 11 mg/day; amount of proteinurea (Heymann-type Nephritis; [13]): 9 mg/day and 13 mg/day and 12 mg/day
